Source: patent publication US10392363B2, “Methods for treating protozoan infections” (Neoculi Pty Ltd., priority 2014, dated 2019)
Several values for one entry are separate records, joined by “and”; a condition that tells them apart may be missing. Equal entries are not always repeated. Each block holds one molecule with its values, some of them ahead of it.

Key:
[1] = tested on: Leishmania donovani promastigotes; assay: L. donovani screening (Alamarblue); assay type: cell-based; details: for L. donovani SI: GI50 of macrophages divided by IC50 of parasites; for inhibition at 10 µM: 96 hrs, read-out: reduction of metabolic activity / inhibition of L. donovani
Method: L. donovani Screening. Procyclic promastigotes from exponentially growing cultures maintained in DME-L+ Bob additions were used for all assays. Compounds were initially screened for activity at 10 μM. Compounds were diluted in culture media to a […] in 96 well plates. Promastigotes were diluted to a density of ˜8×10^5 cells/ml then added to the assay plate resulting in a final cell density of 4×10^5 cells/ml. in 96 well plates. Cells were incubated for 96 hrs at 27° C. before the addition of Alamarblue (thermofisher). Fluorescence was read at excitation 530 nm and Emission 590 nm. […] Compounds were serially diluted in thirds, in a 96 well plate, in cell growth media so that concentrations ranged from 0.005 to 10 μM and promastigotes added to a final concentration of 1×10^6 cells/ml. Cells were incubated at 27° C. for 72 hours before the addition of alamar blue. Fluorescence was measured as above.

[2] = Cell toxicity assay (WST-1); assay type: cell-based, mouse; details: mouse, RAW 264.7 macrophages, RAW 264.7, 24 hours, read-out: GI50 macrophage
Method: Cell toxicity assays. Mouse macrophages (RAW 264.7) were grown in RPM11640 media supplemented with L-glutamine and 10% foetal calf serum. Cells were trypsanised when 80% confluent and subcultured every 3-4 days. For cytotoxicity assays cells were diluted to a final cell concentration of 2×10^4 cells/ml and 198 μl added to each well of a 96 well plate. Cells were incubated in a humidified incubator for 2 hours at 37° C. 5% CO2 before the addition of NCL compounds (2 μl/well, previously diluted in DMSO). Campothecin, triton X and DMSO only were used as controls. Cells were exposed to the compounds for 24 hours. The metabolic activity of the cells was determined using the WST-1 assay system (Roche Life Science). The supernatant was removed, 100 μl of PBS with 10% WST-1 was added to each well and incubated for 1 hr before reading absorbance at 450 nm. The selectivity index of the compounds was determined by dividing the IC50 of macrophages by the IC50 against parasites. IC50 was determined via graphpad prism software.

[3] = Microsomal stability, human; assay type: in vitro ADME; details: human liver microsomes
Method: (§1) Incubation methods: The metabolic stability assay was performed by incubating each test compound (at 1 μM) with human and mouse liver microsomes (Xenotech, Lot#1210057 and 1310211, respectively) at 37° C. and 0.4 mg/mL protein concentration. The metabolic reaction was initiated by the addition of an NADPH-regenerating system (i.e. NADPH is the cofactor required for CYP450-mediated metabolism) and quenched at various time points over a 60 minute incubation period by the addition of acetonitrile containing diazepam as internal standard. Control samples (containing no NADPH) were included (and quenched at 2, 30 and 60 minutes) to monitor for potential degradation in the absence of cofactor. Analytical conditions: Instrument: Waters Micromass Xevo G2 QTOF coupled to a Waters Acquity UPLC; Detection: Positive electrospray ionisation under MSE mode; Cone Voltage 30 V; Column: Ascentis Express Amide column (50×2.1 mm, 2.7 μm); LC conditions: Gradient cycle time: 4 minutes; Injection volume: 5 μL; Flow rate: 0.4 mL/min; Mobile phase: Acetonitrile-water gradient with 0.05% formic acid Metabolite; Identification: A metabolite screen was not included in this study, however, since data was acquired using MSE mode, which allows for the simultaneous acquisition of low and high collision energy MS spectra, a post-hoc metabolite search may be conducted at a later date if warranted. […]

[4] = Microsomal stability, mouse; assay type: in vitro ADME; details: mouse liver microsomes
Method: as §1

[5] = tested on: Trypanosoma cruzi (Tulahuen trypomastigotes expressing β-galactosidase, in L6 cells); assay: In vitro T. cruzi assay for determination of IC50; assay type: cell-based; details: Trypanosoma cruzi, TULAHUEN, L6; 96 h incubation
Method: The T. cruzi assay uses Tulahuen trypomastigotes expressing the β-galactosidase gene. The parasites were maintained in vitro by serial passage in L6 cells. […] Extracellular trypomastigotes were then removed and NCL compounds were added in seven-point serial dilutions performed in triplicate. Benznidazole (Epichem Pty Ltd.) was included as a control. […] After 4-6 h, a colour change following catabolisation of the reagent by viable T. cruzi was observed and absorbance was read at 530 nm using a Dynex microplate reader. […] For each compound, % inhibition values were used to generate a standard curve from which the IC50 was calculated. Each assay was performed at least twice, and the average was used.

[6] = tested on: Giardia duodenalis (strain WB trophozoites); assay: Giardia adherence assay; assay type: cell-based; details: NCL099 at 11, 38 and 128 μg/ml compared to the control
Method: Giardia strain WB was grown until confluent (grown and maintained in TYI-S-33 medium with 10% foetal bovine serum). For the assay, media of a confluent culture was replaced with fresh TYI-S-33 medium. Cultures were then cold shocked (on ice) for 40 minutes to detach trophozoites. The cell density of the cultures was adjusted to 1×10^6 cells/ml and 1 ml was added to each well of a 24 well plate already containing 1 ml of diluted compounds (see below). […] After incubation the coverslips were removed, air-dried and stained with Diff-Quik (a Romanowski stain variant). Coverslips were mounted onto glass slides using polymount. Images at 10× magnification were taken at 5 random locations per coverslip. […] Stock solutions of compounds were prepared in DMSO at 25.6 mg/ml. Compounds were diluted 1:100 in TYI-S-33 medium. A 1:2 serial dilution was then performed in TYI-S-33 medium in 24 well plates.

sheep erythrocytes = assay: Erythrocyte haemolysis assay; assay type: cell-based; details: compared to NCL812 and NCL062
Method: Whole sheep blood was obtained from Thermofisher scientific. The red blood cells were separated from other blood components via centrifugation at 1500 g for 10 minutes and washed with saline 3 times. Erythrocytes were diluted to a concentration of ˜1×10^10 cells/ml in saline. 50 μl of NCL compounds diluted in DMSO (see below) were added to 1.5 ml Eppendorf tubes and 500 μl of diluted red blood cells were added to each tube. Erythrocytes were incubated with compounds for 30 minutes at 37° C. with gentle shaking (75 rpm). After incubation cells were placed on ice for 5 minutes then centrifuged at 1500 rpm for 10 minutes to pellet cells. The supernatant was removed and serially diluted in saline. Absorbance of the supernatant and dilutions were recorded at 550 nm. Sample lysis was compared relative to cells lysed 100% in distilled water and analysed using GraphPad Prism v6 software.

[7] = Release from Formulation B (Franz diffusion cells); assay type: physicochemical; details: absolute ethanol receptor, 32° C., up to 24 hours
Method: Franz diffusion cells were utilized to quantify the release rate of NCL 812 and NCL099 from its topical formulations. Five milliliters of absolute ethanol, which was chosen as the desired release medium, was loaded into the receptor chamber. Temperature of the receptor fluid was kept constant, at 32±1° C. using a water jacket. Acetyl cellulose membranes, with pore size of 0.45 μm (Pall Corporation) was selected and placed between donor and receptor chamber. Followed by that, a number of test samples (Formulation B) was loaded into the donor chamber. One milliliter of receptor fluid was collected at regular time intervals of 0.25, 0.50, 0.75, 1, 2, 3, 4, 5, 6, 7, 8 and 24 hours through the sampling port. One milliliter of fresh absolute ethanol was immediately returned to the receptor chamber. UV-HPLC was utilized to analyse the content of the receptor fluids attained.

[8] = tested on: Giardia WB (Giardia duodenalis); assay: Resazurin Reduction Assay (Example 9); assay type: cell-based
Method: Giardia trophozoites were grown until confluent. The media was replaced with fresh media and cold shocked for 40 minutes. Compounds were prepared in DMSO and serially diluted 2-fold in DMSO starting at with a 1/100 dilution of the stock (e.g. 128 mg/ml stock starting dilution would be […]). 2 μl of dilutions were added to the appropriate wells and 198 ul of TYI-S-33 media added to each well. Cells were diluted to a concentration of ˜500 000 cells/ml and 100 μl were added to each well of the assay plate (except media only control). The assay was incubated in an anaerobic environment (candle jar) for 5 hours at 37° C. The media was removed and replaced with 100 μl of warm PBS then Alamarblue™ added to a concentration of 10%. The samples were incubated in an anaerobic environment until colour development. After incubation, the absorbance of each sample was read at 570 and 630 nm. The percent reduction of resazurin (Alamarblue™) was calculated (using the formula below) and data was analysed with GraphPad Prism v6 software. The formula used to calculate percent reduction of Alamarblue was ((Eoxi630×A570)−(Eoxi570×A630))/((Ered570×C630)−(Ered×C570))×100, Where: Eoxi630=34798, Eoxi570=80586, A570=absorbance at 570 nm, A630=absorbance at 630 nm, Ered570=155677, Ered630=5494, C630=absorbance of negative control well at 630 nm and C570=absorbance of negative control well at 570 nm.

S. aureus ATCC 29213 = assay: S. aureus MIC; assay type: cell-based; details: MIC after 24 hours
T. cruzi infection = details: cited from earlier work

SMILES: COc1ccccc1/C=N/NC(=N)N/N=C/c1ccccc1OC.Cl [NCL028]
IC50 ([1]; 72 hours): 0.29 ± 0.05 µM
L. donovani SI [1]: highly selective
L. donovani SI ([1]; listed as NCL 028): 27.9
IC50 ([1]; Leishmania donovani, 72 h): 0.37 µM
inhibition at 10 µM ([1]; Leishmania donovani): 100%
GI50 at 24 h [2]: 8.1 ± 2.76 µM
rate of degradation [3]: low (low (<0.3))
rate of degradation [4]: high (high (0.7-0.95))
IC50 [5]: 13 µM

SMILES: CC(C)(C)c1ccc(/C=N/NC(=N)N/N=C/c2ccc(C(C)(C)C)cc2)cc1.Cl [NCL099]
number of adherent cells [6]: significant decrease
selectivity for bacterial and protozoal cells than mammalian cells (sheep erythrocytes): greater selectivity
release profile from Formulation B [7]: acceptable release profile
IC50 ([1]; Leishmania donovani, 72 h): 0.37 ± 0.04 µM
inhibition at 10 µM ([1]; Leishmania donovani): 100%
GI50 at 24 h [2]: 7.66 ± 0.56 µM

MIC (S. aureus ATCC 29213; Staphylococcus aureus, ATCC29213): > 100 µg/mL
IC50 ([1]; Leishmania donovani, 72 h): 0.8 ± 0.1 µM
SMILES: C/C(=N\NC(=N)N/N=C(\C)c1ccc(C(C)(C)C)cc1)c1ccc(C(C)(C)C)cc1.Cl [NCL219]
IC50 ([8]; Giardia, 5 h): 1.03 µM and 0.4 µg/mL
L. donovani SI [1]: highly selective
L. donovani SI ([1]; listed as NCL 219): 24.08
inhibition at 10 µM ([1]; Leishmania donovani): 100%
GI50 at 24 h [2]: 19.3 ± 3.77 µM

S. aureus ATCC 29213 MIC (S. aureus ATCC 29213): 4.8 µg/mL
SMILES: NC(N)=N/N=C(\CC1CCCCC1)c1ccc(Cl)cc1O [NCL237]
Giardia WB IC50 ([8]; IC50 after 5 hours): 22.8^ ug/ml

SMILES: O=C(Cn1ccnc1[N+](=O)[O-])NCc1ccccc1 [benznidazole]
cure rate (T. cruzi infection; children with chronic T. cruzi infection, negative serology 3 to 4 years after treatment): around 60%

SMILES: CC1CS(=O)(=O)CCN1/N=C/c1ccc([N+](=O)[O-])o1 (centres unmarked) [nifurtimox]
patients with gastrointestinal side effects (T. cruzi infection; anorexia, weight loss, nausea, vomiting): up to 70%
